Data from patent publication US8153806B2, “Synthesis of 4-amino-thalidomide enantiomers” (The Children's Medical Center Corporation, priority 2000, dated 2012).

Columns and labels:
[1] = tested on: HsSultan B-cell lymphoma; assay: HsSultan B-cell lymphoma metastatic model in SCID mice; format: in vivo; conditions: for Activity: mean time to death: daily from two weeks after i.v. cell injection, vehicle 26 days
Method: (§1) Antitumor activity has been evaluated for the S(−) and the R(+)4-amino-thalidomide enantiomers as follows. For the HsS cell line, 2 million cells are injected into the tail vein of 8 week old, female, SCID mice. Treatment is initiated after two weeks and continued daily until the mice die or show hind limb paralysis. Results are expressed as mean time to death in treated versus control animals. For the Lewis lung model, 2.5×10(5) cells are injected intravenously into the tail vein of 6-8 week old, male, C57BL/6 mice and treatment is initiated on day three. The time period of treatment is usually 11-15 days in duration. After sacrifice by CO^2 asphyxiation, lungs (where tumors seed and grow) are removed, rinsed in water, patted dry, and weighed. Mean lung weights of age-matched, non-tumor bearing mice are subtracted from the weight of treated, tumor-bearing mice with results expressed as lung weight gain in treated versus control animals. Table 1 summarizes data from in vivo experiments in lung and plasma cell tumor metastatic tumor systems, comparing the antitumor activity of the three enantiomeric preparations of 4-amino thalidomide.

[2] = tested on: Lewis lung carcinoma; assay: Lewis lung carcinoma metastatic model in C57BL/6 mice; format: in vivo; conditions: for Activity: weight gain of lung: 100 mg/kg/day, treatment from day three, vehicle 0.40 g
Method: as §1

[3] = tested on: HS-Sultan cells; assay: XTT proliferation assay with HS-Sultan cells; format: cell-based; conditions: 72 hour treatment, FIG. 1
From the text: The Roche Cell Proliferation Kit II (XTT) is an useful assay for screening the relative efficacy of small molecules. The assay quantitatively determines cellular proliferation in response to agonists and/or antagonists of proliferation. It is based on the cleavage of the yellow tetrazolium salt (XTT) by metabolically active/viable cells to form an orange formazan dye. The formation of the soluble dye allows direct quantification using a scanning mulitwell spectrophotometer. An increase in the number of living cells (resulting from proliferation) results in a greater production of formazan dye which corresponds to an increase in the absorbance value.
When evaluating analogs of thalidomide, or the like, we have employed HS-Sultan cells in an in vitro XTT assay. […] When the treatment/labeling period is complete, the plate is read on a spectrophotometric plate reader at a wavelength of 470 nm and a 650 nm reference wavelength. For individual experiments, the average absorbance values (with background subtracted) for each treatment are plotted against the concentration. A larger absorbance value corresponds to a greater amount of proliferation. A negative control (untreated cells) is used as a point of reference; an absorbance value less than the control reflects inhibition of proliferation. […]

[4] = tested on: bFGF induced neovascularization; assay: Corneal micropocket assay, bFGF pellet; format: in vivo, C57BL/6J mice; conditions: 50 mg/kg i.p. daily for five days, n=9 each, P<0.0001, FIG. 2
Method: (§2) A corneal micropocket assay was performed as described in Kenyon, et al., A Model of Angiogenesis in the Mouse Cornea, Invest. Ophtalmol. & Vis. Sci., 37, 1625-1632 (1996), which is incorporated herein in its entirety. Pellets were used containing 80 ng of bFGF or human recombinat VEGF (R&D Systems, Minneapolis, Minn.) in C57BL/6J mice. […] Differences in VEGF induced neovascularization between S(−)-3APG and control were significant (n=9 each, P<0.001), as were differences between S(−)-3APG and thalidomide (n=9 each, P<0.01).

[5] = tested on: VEGF induced neovascularization; assay: Corneal micropocket assay, VEGF pellet; format: in vivo, C57BL/6J mice; conditions: 50 mg/kg i.p. daily for six days, n=9 each, P<0.001, FIG. 2
Method: as §2

Compound | Activity: mean time to death ([1]; 50 mg/kg/day) | Activity: mean time to death ([1]; 200 mg/kg/day) | Activity: weight gain of lung [2] | anti-cellular proliferation activity (XTT, treatment over control) [3] | antitumor activity compared among the enantiomeric preparations of 4-amino thalidomide ([1]; summary of Table 1) | antitumor activity compared among the enantiomeric preparations of 4-amino thalidomide ([2]; summary of Table 1) | difference in bFGF induced neovascularization versus control [4] | difference in VEGF induced neovascularization versus control [5]
Nc1cccc2c1C(=O)N([C@@H]1CCC(=O)NC1=O)C2=O [R(+)-4-amino-thalidomide] | 37 days | 31 days | 0.42 g | show anti-cellular proliferation activity |  |  |  | 
Nc1cccc2c1C(=O)N(C1CCC(=O)NC1=O)C2=O (stereo not drawn) [R, S, 4-amino-thalidomide] | 41 days | 28 days | 0.27 g |  |  |  |  | 
Nc1cccc2c1C(=O)N([C@H]1CCC(=O)NC1=O)C2=O [S(−)-4-amino-thalidomide, S(−)-4-Amino-thalidomide] | 47 days | 47 days | 0.17 g | show anti-cellular proliferation activity | most active enantiomer | most active enantiomer | significant | significant
